Results published in the supplement of paper PMC10784567.
± gives the standard deviation of the averaged measurements.

compound: C=C1C[C@H]2C=Nc3cc(OCCCCCOc4cc5c(cc4OC)C(=O)N4CC(=C)C[C@H]4C=N5)c(OC)cc3C(=O)N2C1 [SG2057]; assay: absolute IC50 (cell viability, CellTiter-Glo); higher = less potent; conditions: treatment time: 3 days
Method: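 Large cancer cell line panel screens in 384-well plates. Cells were treated for 3 days with a 9-point dose titration of the free PBD dimer SG2057; viability was read with CellTiter-Glo. Absolute IC50 came from a four-parameter Hill fit normalised to the median of vehicle (DMSO) wells. Several independent screens (projects) per cell line are averaged; values in µM, lowest-dose floor about 1.524e-5 µM.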

Row | Test System | absolute IC50 [nM]
1 | OAW28 | 5.25
2 | OAW42 | 1.38 ± 1.6
3 | OCI-AML5 | 0.0729 ± 0.11
4 | OCI-LY-10 | < 0.0152
5 | OCI-M1 | 0.227 ± 0.13
6 | OCI-M2 | 0.275 ± 0.0079
7 | OCUM-1 | 0.529 ± 0.32
8 | OE19 | 2.23
9 | OE21 | 0.259
10 | OE33 | 0.0612
11 | ONCO-DG-1 | 1.36 ± 2.2
12 | ONS-76 | 0.487
13 | OPM-2 | 1.63 ± 1.2
14 | OUMS-23 | 1.71 ± 0.89
15 | OV56 | 0.195 ± 0.3
16 | OV-90 | 2.13 ± 1.3
17 | OVCA 420 | 2.24 ± 2.3
18 | OVCAR433 | 0.462 ± 0.47
19 | OVCAR-4 | 1.33 ± 0.49
20 | OVCAR-5 | 1.08 ± 0.3
21 | OVTOKO | 0.557 ± 0.55
22 | OvCA 429 | 0.139 ± 0.067
23 | OvCA 432 | 1.08 ± 0.64
24 | PA-1 | 0.0473 ± 0.056
25 | PA-TU-8988S | 52.1

Row | Test System | absolute IC50 [nM]
26 | PAN 02 | 1.39
27 | PAN 02 X1 | 0.839
28 | PC-9 | 5.48
29 | PE/CA-PJ15 | 0.216
30 | PEO1 | 0.538 ± 0.19
31 | PK-1 | 1.53 ± 1.3
32 | PK-45H | 1.2 ± 0.94
33 | PK-45P | 6.29 ± 1.9
34 | PL45 | 0.402
35 | PL-21 | 1.38 ± 1.2
36 | PLC/PRF/5 | 8.3
37 | PMF-ko14 | 2.86 ± 5.1
38 | Panc 02.03 | 2.51 ± 3.8
39 | Panc 05.04 | 1.68 ± 0.4
40 | Panc 08.13 | 2.7
41 | Panc 10.05 | 0.383 ± 0.11
42 | Pfeiffer | 1.21 ± 2
43 | QGP-1 | 5.47 ± 0.39
44 | RC-K8 | 0.667 ± 1
45 | RCM-1 | 3.33 ± 5.4
46 | RERF-GC-1B | 1.07 ± 1
47 | RERF-LC-KJ | 1.65 ± 2.5
48 | RERF-LC-MS | 0.212 ± 0.15
49 | RERF-LC-OK | 0.729 ± 1
50 | RKO-E6 | 1.32 ± 2.1

Row | Test System | absolute IC50 [nM]
51 | RL95-2 | 1.9
52 | RMUG-S | 1.92 ± 0.051
53 | RPMI 2650 | 0.539 ± 0.27
54 | RT4 | 2.35
55 | RT-112 | 1.53 ± 2.8
56 | RVH-421 | 0.569
57 | Reh | 0.757
58 | Renca | 10.3 ± 12
59 | S-117 | 2.29
60 | SBC-7 | 0.53
61 | SCLC-21H | 0.788
62 | SCLC-22H | 0.905
63 | SF268 | 0.424 ± 0.77
64 | SF539 | 0.27 ± 0.54
65 | SH-SY5Y | 0.142
66 | SIMA | 0.863
67 | SISO | 0.153
68 | SJCRH30 | 0.422
69 | SJCRH30 (RC13) | 0.187
70 | SJSA-1 | 0.0954
71 | SK-BR-3 | 0.69 ± 0.71
72 | SK-CO-1 | 0.201 ± 0.19
73 | SK-HEP-1 | 0.205
74 | SK-MEL-1 | 1.11 ± 0.28
75 | SK-MEL-2 | 1.16 ± 0.55

Row | Test System | absolute IC50 [nM]
76 | SK-MEL-31 | 3.78
77 | SK-N-AS | 0.187
78 | SK-N-BE(2) | 1.64
79 | SK-N-DZ | 5.04
80 | SK-N-FI | 8.79 ± 11
81 | SK-N-SH | 0.114
82 | SK-UT-1B | < 0.0152
83 | SKG-II | 0.0743
84 | SKG-IIIa | 17.7
85 | SKG-IIIb | 1.79
86 | SM1 | 0.444
87 | SNB-19 | 0.187
88 | SNG-M | 0.285 ± 0.16
89 | SNU-1 | 1.89
90 | SNU-16 | 0.344 ± 0.1
91 | SNU-182 | 1.36 ± 1.5
92 | SNU-216 | 1.57 ± 2.9
93 | SNU-387 | 5.76
94 | SNU-449 | 5.84
95 | SNU-475 | 2.56 ± 3.8
96 | SNU-484 | 0.327 ± 0.11
97 | SNU-601 | 0.0897 ± 0.046
98 | SNU-620 | 2.3 ± 3.1
99 | SNU-638 | 0.137 ± 0.046
100 | SNU-668 | 0.573

Row | Test System | absolute IC50 [nM]
101 | SNU-719 | 3.72 ± 4
102 | SNU-C1 | 3.4 ± 0.35
103 | SU-DHL-6 | 0.536 ± 0.73
104 | SU.86.86 | 0.733 ± 0.48
105 | SUM 52PE | 2.62 ± 1.5
106 | SUM 149PT | 1.68 ± 1.6
107 | SUM 159PT | 0.681
108 | SW 403 | 3.64 ± 1.6
109 | SW 480 | 0.462 ± 0.51
110 | SW 626 | 3.67
111 | SW 780 | 0.754
112 | SW 837 | 4.01 ± 0.21
113 | SW 900 | 3.18
114 | SW 948 | 3.39 ± 3.9
115 | SW 1463 | 7.83 ± 8.2
116 | SW 1990 | 0.516 ± 0.22
117 | SiHa | 1.56
118 | T84 | 2.92 ± 2.4
119 | T98G | 3.18 ± 3.7
120 | T.T | 1.93
121 | TC-1 | 0.384
122 | TC-71 | < 0.0152
123 | TK-10 | 2.7 ± 2.1
124 | TOV-21G | 0.261
125 | TRAMP-C1 | 0.345

Row | Test System | absolute IC50 [nM]
126 | TRAMP-C2 | 0.154
127 | TYK-nu | 0.113 ± 0.18
128 | Toledo | 0.279 ± 0.28
129 | U266B1 | 2.64 ± 2.4
130 | U-2 OS | 0.53
131 | U-87 MG | 3.32
132 | U-2932 | 0.213 ± 0.23
133 | UACC-62 | 0.77 ± 0.36
134 | UACC-257 | 2.41
135 | UCSD-242l | 1.29 ± 0.84
136 | UKE-1 | 0.0189 ± 0.0056
137 | UM-RC-6 | 0.651
138 | UM-RC-7 | 0.672
139 | UM-UC-1 | 0.557
140 | UMC-11 | 14.8
141 | VMRC-LCD | 4.27
142 | VMRC-RCW | 3.72
143 | VP229 | 3 ± 3.4
144 | VP267 | 4.86
145 | WM-115 | 0.436 ± 0.57
146 | WSU-DLCL2 | 0.358 ± 0.36
147 | WiDr | 1.38 ± 0.42
148 | YAPC | 1.16 ± 0.74
149 | huH-1 | 2.28
